Laboratory results from patent US20250205186A1, “USE OF CHLOROGENIC ACID IN PREPARING MEDICINE OR PHARMACEUTICAL COMPOSITION FOR PREVENTING OR TREATING PAIN” (SICHUAN JIUZHANG BIOLOGICAL SCIENCE AND TECHNOLOGY CO., LTD., priority 2019, published 2025).

System: bone cancer pain in rats (Walker rat breast cancer cells, tibia implant model)
Test: Mechanical pain hypersensitivity (paw withdrawal threshold) in rat tibia implant bone cancer pain model
Assay type: in vivo
Conditions: for Paw withdrawal threshold compared with the model group: from 5-7 days after administration, p<0.05
Procedure: After two SD female rats were intraperitoneally injected with 0.5 mL cancer cells (4×10^4 cells/μL), ascites was collected on the 7th day, and the cells are rinsed 3 times with sterile 0.01 mol/L PBS to adjust to the concentration of 4×10^3 cells/μL for use. 60 SD rats were randomly selected, and after anesthesia, a small 1 cm incision was made in the upper tibial skin. A 10 mL syringe needle was used to puncture and perforate, then a 10 μL syringe was inserted into the bone marrow cavity, and 3 μL cell suspension containing […] Walker rat breast cancer cells was slowly injected. The pinhole was sealed with bone wax, and the skin was sutured. After surgery, the rats were placed on a 37° C. hot plate for rewarming. After recovery, rats were returned to the cage for further breeding, to obtain the model group. In addition, 8 SD rats were randomly selected, and an equal volume of PBS solution was injected into the marrow cavity of the left upper tibia. The rest of the operations were the same as the model group, to obtain the sham operation group. Mechanical pain hypersensitivity: continuous pain measurement was performed from the 10th day after the operation, the contact stimulator's fine fibers were allowed to touch with the middle of the affected side of the rat's plantar, and the force can be increased up to 80 g within 5 seconds. The rat's paw withdrawal respond was observed, and the paw withdrawal threshold was recorded. Each animal was tested 5 times, with an interval of 5 min between two tests. […] The rats that had been successfully modeled were randomly divided into groups, eight rats for each group, that included high-dose chlorogenic acid group (80 mg/kg), middle-dose chlorogenic acid group (40 mg/kg), low-dose chlorogenic acid group (20 mg/kg), model negative group (N.S normal saline), and sham operation group (N.S normal saline). The rats were intraperitoneally injected with drugs for 15 days in a volume of 0.2 mL/10 g, once a day; the model-negative group and the sham operation group were given the same volume of normal saline. From the second day after administration, the mechanical pain hypersensitivity and radiation thermal pain were investigated before each administration, and the paw withdrawal threshold and the pain threshold were recorded.

For `O=C(/C=C/c1ccc(O)c(O)c1)O[C@@H]1C[C@](O)(C(=O)O)C[C@@H](O)[C@H]1O` [Chlorogenic acid], the Paw withdraw threshold (20 mg/kg ip once a day, 2 d) was 16.46 g, the Paw withdraw threshold (20 mg/kg ip once a day, 3 d) was 22.32 g and the Paw withdraw threshold (20 mg/kg ip once a day, 4 d) was 26.14 g. It also gave a Paw withdraw threshold (20 mg/kg ip once a day, 5 d) of 24.86 g, a Paw withdraw threshold (20 mg/kg ip once a day, 6 d) of 31.21 g and a Paw withdraw threshold (20 mg/kg ip once a day, 7 d) of 37.06 g. For the same compound, the Paw withdraw threshold (20 mg/kg ip once a day, 8 d) was 35.11 g, the Paw withdraw threshold (20 mg/kg ip once a day, 9 d) was 38.48 g and the Paw withdraw threshold (20 mg/kg ip once a day, 10 d) was 37.23 g. The Paw withdraw threshold (20 mg/kg ip once a day, 11 d) was 34.22 g, the Paw withdraw threshold (20 mg/kg ip once a day, 12 d) was 36.74 g and the Paw withdraw threshold (20 mg/kg ip once a day, 13 d) was 33.02 g. The Paw withdraw threshold (20 mg/kg ip once a day, 14 d) was 35.43 g, the Paw withdraw threshold (20 mg/kg ip once a day, 15 d) was 36.52 g and the “Paw withdrawal threshold compared with the model group” value (20 mg/kg) was “significant difference”. It also gave a Paw withdraw threshold (40 mg/kg ip once a day, 2 d) of 18.53 g, a Paw withdraw threshold (40 mg/kg ip once a day, 3 d) of 24.94 g and a Paw withdraw threshold (40 mg/kg ip once a day, 4 d) of 36.37 g. The Paw withdraw threshold (40 mg/kg ip once a day, 5 d) was 42.83 g, the Paw withdraw threshold (40 mg/kg ip once a day, 6 d) was 43.59 g and the Paw withdraw threshold (40 mg/kg ip once a day, 7 d) was 45.85 g. The Paw withdraw threshold (40 mg/kg ip once a day, 8 d) was 50.41 g, the Paw withdraw threshold (40 mg/kg ip once a day, 9 d) was 46.49 g and the Paw withdraw threshold (40 mg/kg ip once a day, 10 d) was 48.77 g. The Paw withdraw threshold (40 mg/kg ip once a day, 11 d) was 44.59 g, the Paw withdraw threshold (40 mg/kg ip once a day, 12 d) was 50.52 g and the Paw withdraw threshold (40 mg/kg ip once a day, 13 d) was 43.72 g. For the same compound, the Paw withdraw threshold (40 mg/kg ip once a day, 14 d) was 48.73 g, the Paw withdraw threshold (40 mg/kg ip once a day, 15 d) was 46.51 g and the “Paw withdrawal threshold compared with the model group” value (40 mg/kg) was “significant difference”. The Paw withdraw threshold (80 mg/kg ip once a day, 2 d) was 20.58 g, the Paw withdraw threshold (80 mg/kg ip once a day, 3 d) was 18.59 g and the Paw withdraw threshold (80 mg/kg ip once a day, 4 d) was 24.41 g. The Paw withdraw threshold (80 mg/kg ip once a day, 5 d) was 24.39 g, the Paw withdraw threshold (80 mg/kg ip once a day, 6 d) was 26.53 g and the Paw withdraw threshold (80 mg/kg ip once a day, 7 d) was 26.07 g. For the same compound, the Paw withdraw threshold (80 mg/kg ip once a day, 8 d) was 24.52 g, the Paw withdraw threshold (80 mg/kg ip once a day, 9 d) was 26.11 g and the Paw withdraw threshold (80 mg/kg ip once a day, 10 d) was 23.21 g. The Paw withdraw threshold (80 mg/kg ip once a day, 11 d) was 25.42 g, the Paw withdraw threshold (80 mg/kg ip once a day, 12 d) was 22.63 g and the Paw withdraw threshold (80 mg/kg ip once a day, 13 d) was 25.79 g. The Paw withdraw threshold (80 mg/kg ip once a day, 14 d) was 23.25 g, the Paw withdraw threshold (80 mg/kg ip once a day, 15 d) was 24.83 g and the “Mechanical paw withdrawal threshold compared with the model group” value (80 mg/kg, p>0.05) was “not statistically significant”.
